Data as given in patent publication US20050152835A1, “Technetium-99M glucarate methods of use for monitoring tissues” (priority 2003, published 2005).

What was measured:
MCF7 breast tumors = test: FASTSPECT dynamic imaging of MCF7 tumor xenografts (MCF7/S and MCF7/D40 together); assay type: in vivo, SCID mice
Method: (§1) Tumor cell lines used. MCF7/S: Cells are parental, drug (doxorubicin) sensitive, breast carcinoma cells. MCF7/D40: Cells were generated in vitro by successive culturing parental MCF7 cells in slowly increasing concentrations of doxorubicin with a total selection time of 31 months. Twenty-eight SCID mice were studied. MCF7/S or MCF7/D40 tumors were grown for 10-14 days after subcutaneous injection of 1×10^6 cells into the right thigh. Groups of mice with the xenografted tumors included: (MCF7/S group: MIBI: n=9; GLA: n=8) and (MCF7/D40 group: MIBI: n=6; GLA: n=5).
The dynamic imaging system SPECT consisted of 24 small modular gamma cameras. Each modular camera consists of a 10 cm×10 cm NaI(Tl) scintillation crystal, 4 square (5 cm×5 cm) Hamamatsu photomultiplier tubes. The system included a cylindrical aperture with twenty four 1-mm diameter pinholes drilled in the aperture. A point source in the center of the field of view is projected simultaneously to the center of each camera. Total magnification is 3.5 in a 3.0 cm×3.2 cm×3.2 cm field of view. The spatial resolution of the system is about 1.0 mm, with a sensitivity of 13.3 cps/μCi.
(§2) ^99mTc-GLA or ^99mTc-MIBI (5-8 mCi, 185-296 MBq) was injected via a jugular vein catheter. Dynamic images were acquired for 2 hours. Twenty-four projections were obtained, one from each camera. Each scintillation event within the camera's NaI crystal was registered as the digitized outputs from the camera's four photomultiplier tubes. The four photomultiplier outputs were compared to a 20-bit look-up table derived from a calibration procedure that involved moving a collimated source across the camera face.
Tumor image reconstruction was performed using 100 iterations of the maximum-likelihood expectation-maximization (ML-EM) algorithm. Using SlicerDicer software, three-dimensional images were computed to provide images in a 33×49×49 voxels format, and generate tomographic transaxial, coronal and sagittal slices with one-pixel thickness (1.0 mm). Regions of interest (ROI) over the tumors were created and applied to the dynamic images for determining time-activity curves. The percent washout rate relative to the peak uptake of the tumors were calculated.

MCF7/S tumors = test: Biodistribution in mice bearing MCF7/S tumors; assay type: in vivo, SCID mice
Method: as §1, §2
(§3) Tumors and organs were harvested and counted in a dose calibrator. The percent injected dose per gram (% ID/g) was calculated. Membrane preparations made from MCF7/S and MCF7/D40 tumors were immunoblotted with the mouse monoclonal antibody C219 against Pgp followed by a secondary antibody, which was detected by chemiluminescence. […] No immunodetectable MDR1 Pgp was presented in MCF7/S cells.

MCF7/D40 tumors = test: Biodistribution in mice bearing MCF7/D40 tumors; assay type: in vivo, SCID mice
Method: as §1, §2, §3

[1] = test system: plasmocytoma (localized myeloma); test: Scintigraphy of a patient with plasmocytoma of T8; assay type: in vivo, human
Method: A patient complaining of invalidation pain in the spine (mid-thorax) for about two months. Peak of monoclonal IgG-k in serum. Bence-Jones protein in urine. Spine CT. lytic lesion of T8, with soft tissue infiltration. […] Uptake was obvious in the early images, 15 and 30 min p.i., late acquisition, 6 hr p.i., made the tracer uptake much more obvious.

infarcted hearts = settings: isoproterenol-induced myocardial infarction; cited from earlier work
[2] = Table 2, MCF7/S mice, 2 hours after injection
[3] = Table 4 (Example 3), MCF7/S mice
[4] = Table 2, MCF7/D40 mice, 2 hours after injection
[5] = Table 4 (Example 3), MCF7/D40 mice

Substance: ^99mTc-glucarate
- time tumors remained detectable after injection (MCF7 breast tumors; Example 3): at least 2 hrs
- time to initial visualization of tumors after injection (MCF7 breast tumors; FASTSPECT imaging, all tumors of the glucarate groups, i.v.): ≤ 5 min
- time to unequivocal localization/visualization of tumors after injection (MCF7 breast tumors; FASTSPECT imaging, i.v.): 10 to 30 min
- time radioactive accumulation in the MCF7 tumors remained post-injection (MCF7 breast tumors; dynamic images): at least 120 minutes
- tumor-to-muscle ratio relative to that for 99mTc-sestamibi (fold higher) (MCF7/S tumors; MCF7/S tumors, 2 hours after injection): 9.4 fold
- Biodistribution, blood (MCF7/S tumors; [2]): 1.13 ± 0.16 % ID/gm
- Biodistribution, heart (MCF7/S tumors; [2]): 0.64 ± 0.08 % ID/gm
- Biodistribution, kidneys (MCF7/S tumors; [2]): 22.70 ± 1.38 % ID/gm
- Biodistribution, liver (MCF7/S tumors; [2]): 2.04 ± 0.37 % ID/gm
- Biodistribution, lung (MCF7/S tumors; [2]): 1.08 ± 0.10 % ID/gm
- Biodistribution, muscle (MCF7/S tumors; [2]): 0.27 ± 0.02 % ID/gm
- Biodistribution, tumor (MCF7/S tumors; [2]): 1.15 ± 0.17 % ID/gm
- Biodistribution, blood (MCF7/S tumors; [3]): 1.19 ± 0.17 % ID/g
- Biodistribution, heart (MCF7/S tumors; [3]): 0.70 ± 0.09 % ID/g
- Biodistribution, kidneys (MCF7/S tumors; [3]): 22.59 ± 1.38 % ID/g
- Biodistribution, liver (MCF7/S tumors; [3]): 2.10 ± 0.35 % ID/g
- Biodistribution, lung (MCF7/S tumors; [3]): 1.15 ± 0.11 % ID/g
- Biodistribution, muscle (MCF7/S tumors; [3]): 0.29 ± 0.02 % ID/g
- Biodistribution, tumor (MCF7/S tumors; [3]): 1.16 ± 0.17 % ID/g
- Tumor/Blood ratio (MCF7/S tumors; [3]): 1.13 ± 0.23
- Tumor/Muscle ratio (MCF7/S tumors; [3]): 4.37 ± 0.89
- mean tumor-to-muscle ratio (MCF7/S tumors; drug-sensitive tumors (MCF7/S)): 4.5
- tumor-to-muscle ratio relative to that for 99mTc-sestamibi (fold higher) (MCF7/D40 tumors; MCF7/D40 tumors, 2 hours after injection): 19.2 fold
- Biodistribution, blood (MCF7/D40 tumors; [4]): 1.07 ± 0.14 % ID/gm
- Biodistribution, heart (MCF7/D40 tumors; [4]): 0.55 ± 0.10 % ID/gm
- Biodistribution, kidneys (MCF7/D40 tumors; [4]): 22.10 ± 1.59 % ID/gm
- Biodistribution, liver (MCF7/D40 tumors; [4]): 1.56 ± 0.18 % ID/gm
- Biodistribution, lung (MCF7/D40 tumors; [4]): 1.41 ± 0.54 % ID/gm
- Biodistribution, muscle (MCF7/D40 tumors; [4]): 0.25 ± 0.04 % ID/gm
- Biodistribution, tumor (MCF7/D40 tumors; [4]): 1.39 ± 0.12 % ID/gm
- Biodistribution, blood (MCF7/D40 tumors; [5]): 1.07 ± 0.14 % ID/g
- Biodistribution, heart (MCF7/D40 tumors; [5]): 0.55 ± 0.1 % ID/g
- Biodistribution, kidneys (MCF7/D40 tumors; [5]): 22.10 ± 1.59 % ID/g
- Biodistribution, liver (MCF7/D40 tumors; [5]): 1.56 ± 0.18 % ID/g
- Biodistribution, lung (MCF7/D40 tumors; [5]): 1.41 ± 0.54 % ID/g
- Biodistribution, muscle (MCF7/D40 tumors; [5]): 0.25 ± 0.04 % ID/g
- Biodistribution, tumor (MCF7/D40 tumors; [5]): 1.39 ± 0.12 % ID/g
- Tumor/Blood ratio (MCF7/D40 tumors; [5]): 1.38 ± 0.19
- Tumor/Muscle ratio (MCF7/D40 tumors; [5]): 6.23 ± 0.89
- mean tumor-to-muscle ratio (MCF7/D40 tumors; drug-resistant tumors (MCF7/D40)): 6.2
- scan finding at diagnosis ([1]; patient with lytic lesion of T8, posterior view): focally increase tracer uptake in the bone lesion and in soft tissue
- scan finding after about 1 year of stabilization and external radiotherapy ([1]; posterior view): normal physiologic tracer distribution, without areas of focally increased uptake
- uptake in infarcted hearts relative to normal rats (infarcted hearts): 6 times
